The source of these data is ChEMBL document CHEMBL4725481, “Novel Betulinic Acid-Nucleoside Hybrids with Potent Anti-HIV Activity” (ACS Med Chem Lett, 2020).

Series [1] can be described thus: Selectivity index, ratio of CC50 for human MT4 cells to EC50 for antiviral activity against HIV1 NL4-3. The format is toxicity.
Series [2] in a line: Antiviral activity against HIV 1 NL4-3 infected in human MT4 cells assessed as reduction in viral replication and measured on day 3 post infection by Nano-glo luciferase reporter assay. The format is functional, cell-based. On the technique in general: Reporter assays use an easily measured gene product as a stand-in for the process of interest.
The nature of series [3]: Cytotoxicity against human MT4 cells treated for 3 days measured by Celltiter-glo luminescent assay. Format: cell-based. Conditions: time 3 day. (In general: In ATP-based viability assays light output follows the ATP content of the culture.)
Where [4] appears, read: Homo sapiens, NL4-3, MT4, 72 h, read-out: IC50.

Usually IC50 stands for the concentration that inhibits the measured activity by half. The term CC50 denotes the concentration at which the toxic effect on the cells reaches its halfway point.

Regarding `[N-]=[N+]=N[C@]1(CO)O[C@@H](n2ccc(=O)[nH]c2=O)[C@@H](F)[C@@H]1O`, in series [1], the selectivity ratio is greater than 16. Moreover, the IC50 in series [2] (setting [4]) turned out to be 219 nM. The molecule further showed a CC50 at 72 h in series [3] greater than 3480 nM.

For `C=C(C)[C@@H]1CC[C@]2(C(=O)OC)CC[C@]3(C)[C@H](CC[C@@H]4[C@@]5(C)C[C@@H](Cc6cn([C@]7(CO)O[C@@H](n8ccc(O)nc8=O)[C@@H](F)[C@@H]7O)nn6)[C@H](O)C(C)(C)[C@@H]5CC[C@]43C)[C@@H]12`, the IC50 result in series [2] (mt4) was “Not Active”.

As to `C=C(C)[C@@H]1CC[C@]2(C(=O)O)CC[C@]3(C)[C@H](CC[C@@H]4[C@@]5(C)C[C@@H](Cc6cn([C@]7(CO)O[C@@H](n8ccc(O)nc8=O)[C@@H](F)[C@@H]7O)nn6)[C@H](O)C(C)(C)[C@@H]5CC[C@]43C)[C@@H]12`, the selectivity ratio in series [1] came to 1190. Also, in series [2] (setting [4]), the IC50 was 20 nM. Besides, in series [3], the midpoint of cytotoxicity, the CC50 at 72 h, lay at 23800 nM.

Turning to `C=C(C)[C@@H]1CC[C@]2(C(=O)OC)CC[C@]3(C)[C@H](CC[C@@H]4[C@@]5(C)C[C@@H](Cc6cn([C@H]7C[C@H](n8cc(C)c(O)nc8=O)O[C@@H]7CO)nn6)C(=O)C(C)(C)[C@@H]5CC[C@]43C)[C@@H]12`, the IC50 result in series [2] (mt4) was “Not Active”.

Regarding `C=C(C)[C@@H]1CC[C@]2(C(=O)OC)CC[C@]3(C)[C@H](CC[C@@H]4[C@@]5(C)C[C@@H](Cc6cn([C@]7(CO)O[C@@H](n8ccc(O)nc8=O)[C@@H](F)[C@@H]7O)nn6)C(=O)C(C)(C)[C@@H]5CC[C@]43C)[C@@H]12`, the IC50 entry in series [2] (mt4) is reported as “Not Active”.

With `C=C(C)[C@@H]1CC[C@]2(C(=O)OC)CC[C@]3(C)[C@H](CC[C@@H]4[C@@]5(C)C[C@@H](Cc6cn([C@]7(CO)O[C@@H](n8ccc(N)nc8=O)[C@@H](F)[C@@H]7O)nn6)C(=O)C(C)(C)[C@@H]5CC[C@]43C)[C@@H]12`, in series [1], the selectivity ratio is greater than 260. Also, in series [2] (setting [4]), the IC50 worked out at 97 nM. In addition, the CC50 at 72 h in series [3] is greater than 25200 nM.

With `C=C(C)[C@@H]1CC[C@]2(C(=O)O)CC[C@]3(C)[C@H](CC[C@@H]4[C@@]5(C)C[C@@H](Cc6cn([C@H]7C[C@H](n8cc(C)c(O)nc8=O)O[C@@H]7CO)nn6)[C@H](O)C(C)(C)[C@@H]5CC[C@]43C)[C@@H]12`, in series [2] (setting [4]), the IC50 is greater than 1300 nM. For the same molecule, the CC50 at 72 h in series [3] was greater than 1300 nM.

Take `C=C(C)[C@@H]1CC[C@]2(C(=O)OC)CC[C@]3(C)[C@H](CC[C@@H]4[C@@]5(C)C[C@@H](Cc6cn([C@]7(CO)O[C@@H](n8ccc(N)nc8=O)[C@@H](F)[C@@H]7O)nn6)[C@H](O)C(C)(C)[C@@H]5CC[C@]43C)[C@@H]12`: in series [1], the selectivity ratio was greater than 525. In series [2] (setting [4]), the IC50 turned out to be 48 nM. Besides, the CC50 at 72 h in series [3] is greater than 25200 nM.

As for `C=C(C)[C@@H]1CC[C@]2(C(=O)OC)CC[C@]3(C)[C@H](CC[C@@H]4[C@@]5(C)C[C@@H](Cc6cn([C@H]7C[C@H](n8cc(C)c(O)nc8=O)O[C@@H]7CO)nn6)[C@H](O)C(C)(C)[C@@H]5CC[C@]43C)[C@@H]12`, in series [2] (setting [4]), the IC50 is greater than 1300 nM. This molecule also came in with a CC50 at 72 h in series [3] greater than 1300 nM.

`C=C(C)[C@@H]1CC[C@]2(C(=O)O)CC[C@]3(C)[C@H](CC[C@@H]4[C@@]5(C)C[C@@H](Cc6cn([C@]7(CO)O[C@@H](n8ccc(N)nc8=O)[C@@H](F)[C@@H]7O)nn6)[C@H](O)C(C)(C)[C@@H]5CC[C@]43C)[C@@H]12`: the selectivity ratio in series [1] was determined as 1230. Also, in series [2] (setting [4]), the IC50 worked out at 7.8 nM. The molecule further gave a CC50 at 72 h in series [3] of 9600 nM.

`C=C(C)[C@@H]1CC[C@]2(C(=O)O)CC[C@]3(C)[C@H](CC[C@@H]4[C@@]5(C)CC[C@H](OC(=O)CC(C)(C)C(=O)O)C(C)(C)[C@@H]5CC[C@]43C)[C@@H]12` [BEVIRIMAT]: the selectivity ratio in series [1] was greater than 326. Further, the IC50 in series [2] (setting [4]) is greater than 21 nM. Besides, the CC50 at 72 h in series [3] was greater than 6840 nM.

Regarding `[N-]=[N+]=N[C@]1(CO)O[C@@H](n2ccc(N)nc2=O)[C@@H](F)[C@@H]1O` [RO-0622], the selectivity ratio in series [1] is 380. In addition, the IC50 in series [2] (setting [4]) came out at 0.262 nM. In series [3], this molecule came in with a CC50 at 72 h of 99.6 nM.

On to `Cc1cn([C@H]2C[C@H](N=[N+]=[N-])[C@@H](CO)O2)c(=O)[nH]c1=O` [ZIDOVUDINE], for which, in series [1], the selectivity ratio is greater than 20.6. The IC50 in series [2] (setting [4]) is 18 nM. In series [3], this molecule showed a CC50 at 72 h greater than 370 nM.
